From patent publication US20250263396A1, “CRYSTALLINE FORMS OF 3-(5-(2-HYDROXY-2- METHYLPROPOXY)-6-METHYPYRAZIN-2-YL)-1H-INDOLE-7-CARBONITRILE” (NIDO BIOSCIENCES, INC., priority 2024, published 2025)
Entries after “also recorded” stand apart in the source; their conditions may differ.

Legend:
[1] = Equilibration with solvents; format: physicochemical
Experimental: Obtained suspensions were filtered through a 0.45 μm nylon membrane filter by centrifugation at 14,000 rpm. Solid parts (wet cakes) were investigated by XRPD. For samples with different XRPD patterns, additional analysis including DSC, TGA, ^1H-NMR were performed.
(§1) Obtained suspensions were filtered through a 0.45 μm nylon membrane filter by centrifugation at 14,000 rpm.
as §1

[2] = Exposure to humidity or ambient condition; format: physicochemical
[3] = Competitive equilibration experiments; conditions: 2-MeTHF
Experimental: Relative stability of the anhydrate Forms A, C, H and J was investigated with competitive equilibration experiments.
Relative stability of the anhydrates Forms C, K and L was investigated with competitive equilibration experiments.
Relative stability of the anhydrates Form C and Form P was systematically investigated with competitive equilibration experiments.
About 5 mg of Form C and about 5 mg of Form P were added to 0.25 mL of saturated solutions of selected solvents. Obtained suspensions were stirred at 25° C., 50° C. and 70° C. for 4 days, respectively. Solid parts (wet cakes) were isolated by centrifugation filtration and investigated by XRPD.
About 10 mg of Form C and about 10 mg of Form P were added to 0.5 mL saturated solutions of selected solvents. Obtained suspensions were stirred at 80/C and 90 C, respectively. Solid parts (wet cakes) were be isolated by centrifugation filtration and investigated by XRPD.
About 3 mg of the Form P and 3 mg of the mixture of Form P and Form J were added to 0.2 mL of saturated solutions of selected solvents. Obtained suspensions were stirred at 25° C., 50° C. and 70° C. for 4 days, respectively. Solid parts (wet cakes) were isolated by centrifugation filtration and investigated by XRPD.
About 3 mg of Form P and 3 mg of the physical mixture of Form P and Form R were added to 0.2 mL of saturated solutions of 2-MeTHF. Obtained suspensions were stirred at 25° C., 50° C. and 70° C., respectively. Solid parts (wet cakes) were isolated by centrifugation filtration and investigated by XRPD.
About 1.5 mg of Form P, 1.5 mg of Form X and 1.5 mg Form Y were added to 0.15 mL saturated solution of 2-MeTHF. Obtained suspensions were stirred at 25° C., 50° C. and 70° C., respectively. Solid parts (wet cake) were isolated by centrifugation filtration and investigated by XRPD.

[4] = test system: LNCaP cells expressing ARR2PB-FireflyLuc and CMV-RenillaLuc; test: LNCaP ARR2PB-FireflyLuc reporter assay; format: cell-based; conditions: Homo sapiens, +/−0.5 nM DHT, 48 h at 37° C.
Experimental: LNCaP cells expressing ARR2PB-FireflyLuc and CMV-RenillaLuc were treated with indicated concentrations of the test compound, enzalutamide (negative control), or DHT (positive control)+/−0.5 nM DHT for 48 h at 37° C. […] signals were read with the ImageXpress Micro Confocal System. Remaining activity (antagonist mode) was calculated as % Remaining Activity=100×[(Readsample−LCave)/(HCave−LCave)] where HC is cells treated with 0.5 nM DHT only and LC is cells treated with 10 uM enzalutamide+0.5 nM DHT. Activation (agonist mode) was calculated as % Activation=100×[(ReadSample−LCave)/(HCave−LCave)] where HC is cells treated with 1 uM DHT and LC is cells treated with DMSO. Dose response curves and IC50 values were calculated using non-linear regression analysis in XLfit.

[5] = Form change on heating, dehydration or desolvation (TGA, DSC, variable temperature XRPD); format: physicochemical; conditions: DSC thermogram and VT-XRPD
Experimental: Relative stability of the anhydrates Form R and Form P was investigated by variable temperature XRPD and competitive equilibration experiments.
Relative stability of the anhydrates Form B, Form X, Form Y and Form C was investigated by variable temperature XRPD. Form B converted to Form X, Form Y and Form C after heating to 150° C., 176° C. and 180° C., respectively.

[6] = Form conversion kinetics from Form C to Form P; format: physicochemical
Experimental: To investigate form conversion kinetics from Form C to Form P, equilibration experiments with Form C in pH 1.2 HCl buffer, 2-MeTHF, heptane and water were conducted. In 2-MeTHF, Form C converted to Form P within 2 h at 25° C. In pH 1.2 HCl buffer, Form C converted to Form P after 31 h at 37° C. In heptane, Form C converted to Form P completely after 1 week at 25° C. In water, Form C converted to Form P completely after 4 days at 25° C.

[7] = Wet granulation simulation experiments; format: physicochemical
Experimental: Water or ethanol was added drop wise to about 10 mg of Form P until the sample is wetted sufficiently. Wet sample was ground gently with in a mortar and a pestle. Post granulation sample was dried under ambient condition for 10 min.
Water or ethanol was added drop wise to about 10 mg of Form C until the sample is wetted sufficiently. Wet sample was ground gently with in a mortar and a pestle. Post granulation sample was dried under ambient condition for 5 min.

[8] = Competitive water activity experiments; conditions: whole range of water activity (0≤a.w.≤1)
[9] = Dry grinding simulation experiments; format: physicochemical; conditions: ground manually with mortar and pestle, 5 min
Experimental: About 10 mg of Form P was ground manually with a mortar and a pestle for 1, 3 and 5 minutes.
About 10 mg of Form C was ground manually with a mortar and a pestle for 5 minutes.

For `Cc1nc(-c2c[nH]c3c(C#N)cccc23)cnc1OCC(C)(C)O` [Amorphous form, 3-(5-(2-hydroxy-2-methylpropoxy)-6-methylpyrazin-2-yl)-1H-indole-7-carbonitrile], the XRPD after equilibration ([1]; 2-MeTHF, 25° C.) was “Form P”, the XRPD after equilibration ([1]; 2-MeTHF/heptane (v:v = 1:1), 25° C.) was “Form P” and the XRPD after equilibration ([1]; 2-MeTHF/heptane (v:v = 3:1), 25° C.) was “Form P”. The XRPD after equilibration ([1]; 2-Propanol, 25° C.) was “Form P”, the XRPD after equilibration ([1]; Acetone, 25° C.) was “Form P” and the XRPD after equilibration ([1]; Acetone/water (v:v = 30:70) a.w. = 0.92, 25° C.) was “Form P”. For the same compound, the XRPD after equilibration ([1]; Acetonitrile, 25° C.) was “Form P”, the XRPD after equilibration ([1]; DMSO/water (v:v = 40:60) a.w. = 0.77, 25° C.) was “Form P” and the XRPD after equilibration ([1]; Ethanol, 25° C.) was “Form P”. For the same compound, the XRPD after equilibration ([1]; Ethanol/water (v:v = 40:60) a.w. = 0.91, 25° C.) was “Form P”, the XRPD after equilibration ([1]; Ethyl acetate, 25° C.) was “Form P” and the XRPD after equilibration ([1]; Isopropyl acetate, 25° C.) was “Form P”. For the same compound, the XRPD after equilibration ([1]; MEK, 25° C.) was “Form P”, the XRPD after equilibration ([1]; MTBE, 25° C.) was “Form P” and the XRPD after equilibration ([1]; Methanol, 25° C.) was “Form B”. The XRPD after equilibration ([1]; THF, 25° C.) was “Form I”, the XRPD after equilibration ([1]; Toluene, 25° C.) was “Form C” and the XRPD after equilibration ([1]; heptane, 25° C.) was “Form C”. The XRPD after equilibration ([1]; pH 1.2 HCl/KCl buffer, 25° C.) was “Form P”, the XRPD after equilibration ([1]; water, 25° C.) was “Form P” and the “Form after humidity exposure” value ([2]; exposure to high humidity) was “crystallized to Form N”.

With `Cc1nc(-c2c[nH]c3c(C#N)cccc23)cnc1OCC(C)(C)O` [3-(5-(2-hydroxy-2-methylpropoxy)-6-methylpyrazin-2-yl)-1H-indole-7-carbonitrile] the “XRPD after competitive equilibration” value ([3]; 25° C. for 3 days) was “Form P”, the “XRPD after competitive equilibration” value ([3]; 50° C. for 3 days) was “Form P” and the “XRPD after competitive equilibration” value ([3]; 70° C. for 1 week) was “Form P”. For the same compound, the “XRPD after competitive equilibration” value ([3]; 70° C. for 3 days) was “Form P + one peak” and the IC50 [4] was 50 nM.

For `Cc1nc(-c2c[nH]c3c(C#N)cccc23)cnc1OCC(C)(C)O` [Form V, 3-(5-(2-hydroxy-2-methylpropoxy)-6-methylpyrazin-2-yl)-1H-indole-7-carbonitrile], the “Time to conversion to Form W” value ([2]; ambient condition (20° C.-27° C., 50% RH-70% RH)) was no more than 12 h.

With `Cc1nc(-c2c[nH]c3c(C#N)cccc23)cnc1OCC(C)(C)O` [Form K, 3-(5-(2-hydroxy-2-methylpropoxy)-6-methylpyrazin-2-yl)-1H-indole-7-carbonitrile] the “Form after melting and re-crystallization” value [5] was “converts to Form L” and the “Form after humidity exposure” value ([2]; 25° C./92% RH for 6 days) was “reverts back to Form B; also recorded: converts to hydrate Form B”.

With `Cc1nc(-c2c[nH]c3c(C#N)cccc23)cnc1OCC(C)(C)O` [Form C, 3-(5-(2-hydroxy-2-methylpropoxy)-6-methylpyrazin-2-yl)-1H-indole-7-carbonitrile] the “Time to conversion to Form P” value ([6]; 2-MeTHF, 25° C.) was no more than 2 h, the “Time to complete conversion to Form P” value ([6]; heptane, 25° C.) was 1 week and the “Time to conversion to Form P” value ([6]; pH 1.2 HCl buffer, 37° C.) was 31 h. The “Time to complete conversion to Form P” value ([6]; water, 25° C.) was 4 days, the “Comments (crystallinity)” value ([7]; granulation solvent Ethanol) was “Crystallinity decreased” and the XRPD ([7]; granulation solvent Ethanol) was “Form C”. The “Comments (crystallinity)” value ([7]; granulation solvent Water) was “Crystallinity decreased slightly”, the XRPD ([7]; granulation solvent Water) was “Form C” and the “Relative stability in water activity experiments” value [8] was “stable”. For the same compound, the “Comments (crystallinity)” value [9] was “Crystallinity decreased slightly” and the XRPD [9] was “Form C”.
